Assay: xn = mol fraction of the nth substance listed

CCCCC + CCO
298.15 K, 101.33 kPa
Conditions	viscosity [mPa·s]
x2 = 0.0673	0.245
x2 = 0.1351	0.255
x2 = 0.2366	0.288
x2 = 0.3031	0.302
x2 = 0.4034	0.347
x2 = 0.5262	0.425
x2 = 0.6339	0.521
x2 = 0.7315	0.634
x2 = 0.8097	0.742
x2 = 0.9174	0.927

CCCCCCCCn1cc[n+](C)c1.O=[N+]([O-])[O-] + CCO
Conditions	viscosity [mPa·s]
293.15 K, 101 kPa, x2 = 0.128	464.3

CCCCCCCO + CCO
viscosity [mPa·s], 101 kPa
Conditions	298.15 K	308.15 K	318.15 K
x2 = 0.05	5.456	4.038	3.025
x2 = 0.1	5.144	3.82	2.89
x2 = 0.15	4.838	3.607	2.75
x2 = 0.2	4.539	3.4	2.607
x2 = 0.25	4.249	3.199	2.465
x2 = 0.3	3.969	3.005	2.325
x2 = 0.35	3.699	2.817	2.188
x2 = 0.4	3.439	2.636	2.055
x2 = 0.45	3.191	2.462	1.927
x2 = 0.5	2.954	2.294	1.805
x2 = 0.55	2.727	2.132	1.688
x2 = 0.6	2.512	1.977	1.577
x2 = 0.65	2.306	1.827	1.471
x2 = 0.7	2.111	1.682	1.369
x2 = 0.75	1.924	1.543	1.271
x2 = 0.8	1.744	1.408	1.174
x2 = 0.85	1.571	1.276	1.078
x2 = 0.9	1.403	1.147	0.9796
x2 = 0.95	1.237	1.021	0.8769

CS(C)=O + CCO
Conditions	viscosity [mPa·s]
293.15 K, 100 kPa, x2 = 0.08	2.021
293.15 K, 100 kPa, x2 = 0.16	1.873
293.15 K, 100 kPa, x2 = 0.23	1.756
293.15 K, 100 kPa, x2 = 0.3	1.666
293.15 K, 100 kPa, x2 = 0.36	1.572
298.15 K, 100 kPa, x2 = 0.08	1.828
298.15 K, 100 kPa, x2 = 0.16	1.701
298.15 K, 100 kPa, x2 = 0.23	1.598
298.15 K, 100 kPa, x2 = 0.3	1.517
298.15 K, 100 kPa, x2 = 0.36	1.436
298.15 K, 101 kPa, x1 = 0.061	1.182
298.15 K, 101 kPa, x1 = 0.2	1.291
298.15 K, 101 kPa, x1 = 0.37	1.466
298.15 K, 101.3 kPa, x1 = 0.0616	1.015
298.15 K, 101.3 kPa, x1 = 0.1286	1.021
298.15 K, 101.3 kPa, x1 = 0.2019	1.022
298.15 K, 101.3 kPa, x1 = 0.2801	1.056
298.15 K, 101.3 kPa, x1 = 0.3708	1.114
298.15 K, 101.3 kPa, x1 = 0.4693	1.187
298.15 K, 101.3 kPa, x1 = 0.5814	1.298
298.15 K, 101.3 kPa, x1 = 0.7023	1.454
298.15 K, 101.3 kPa, x1 = 0.7609	1.538
298.15 K, 101.3 kPa, x1 = 0.8414	1.657
298.15 K, 101.3 kPa, x1 = 0.933	1.851
298.15 K, 101.31 kPa, x1 = 0.1026	1.034
298.15 K, 101.31 kPa, x1 = 0.1971	1.029
298.15 K, 101.31 kPa, x1 = 0.2892	1.061
298.15 K, 101.31 kPa, x1 = 0.4043	1.137
298.15 K, 101.31 kPa, x1 = 0.5029	1.234
298.15 K, 101.31 kPa, x1 = 0.62	1.352
298.15 K, 101.31 kPa, x1 = 0.7117	1.491
298.15 K, 101.31 kPa, x1 = 0.8036	1.634
298.15 K, 101.31 kPa, x1 = 0.9017	1.807
299 K, 101 kPa, x1 = 0.0519	1.711
299 K, 101 kPa, x1 = 0.1593	1.696
299 K, 101 kPa, x1 = 0.3301	1.895
299 K, 101 kPa, x1 = 0.451	2.099
299 K, 101 kPa, x1 = 0.5779	2.34
299 K, 101 kPa, x1 = 0.7807	2.572
303.15 K, 100 kPa, x2 = 0.16	1.552
303.15 K, 100 kPa, x2 = 0.3	1.39
303.15 K, 100 kPa, x2 = 0.36	1.317
303.15 K, 101 kPa, x1 = 0.2	1.191
303.15 K, 101 kPa, x1 = 0.2004	1.205
303.15 K, 101 kPa, x1 = 0.37	1.366
303.15 K, 101.3 kPa, x1 = 0.0616	0.966
303.15 K, 101.3 kPa, x1 = 0.1286	0.932
303.15 K, 101.3 kPa, x1 = 0.2019	0.884
303.15 K, 101.3 kPa, x1 = 0.2801	0.904
303.15 K, 101.3 kPa, x1 = 0.3708	0.938
303.15 K, 101.3 kPa, x1 = 0.4693	1.064
303.15 K, 101.3 kPa, x1 = 0.5814	1.201
303.15 K, 101.3 kPa, x1 = 0.7023	1.354
303.15 K, 101.3 kPa, x1 = 0.7609	1.481
303.15 K, 101.3 kPa, x1 = 0.933	1.685
308.15 K, 100 kPa, x2 = 0.16	1.426
308.15 K, 100 kPa, x2 = 0.3	1.28
308.15 K, 100 kPa, x2 = 0.36	1.213
308.15 K, 101 kPa, x1 = 0.061	1.002
308.15 K, 101 kPa, x1 = 0.2	1.091
308.15 K, 101 kPa, x1 = 0.37	1.266
308.15 K, 101.31 kPa, x1 = 0.1026	0.882
308.15 K, 101.31 kPa, x1 = 0.1971	0.893
308.15 K, 101.31 kPa, x1 = 0.2892	0.916
308.15 K, 101.31 kPa, x1 = 0.4043	0.981
308.15 K, 101.31 kPa, x1 = 0.5029	1.056
308.15 K, 101.31 kPa, x1 = 0.62	1.159
308.15 K, 101.31 kPa, x1 = 0.7117	1.26
308.15 K, 101.31 kPa, x1 = 0.8036	1.375
308.15 K, 101.31 kPa, x1 = 0.9017	1.511
313.15 K, 100 kPa, x2 = 0.08	1.402
313.15 K, 100 kPa, x2 = 0.16	1.312
313.15 K, 100 kPa, x2 = 0.23	1.237
313.15 K, 100 kPa, x2 = 0.3	1.181
313.15 K, 100 kPa, x2 = 0.36	1.121
318.15 K, 101.31 kPa, x1 = 0.1026	0.745
318.15 K, 101.31 kPa, x1 = 0.1971	0.753
318.15 K, 101.31 kPa, x1 = 0.2892	0.782
318.15 K, 101.31 kPa, x1 = 0.4043	0.835
318.15 K, 101.31 kPa, x1 = 0.5029	0.908
318.15 K, 101.31 kPa, x1 = 0.62	0.994
318.15 K, 101.31 kPa, x1 = 0.7117	1.067
318.15 K, 101.31 kPa, x1 = 0.8036	1.171
318.15 K, 101.31 kPa, x1 = 0.9017	1.28
323.15 K, 101 kPa, x1 = 0.8011	1.125

C[N+](C)(C)CCC[n+]1ccccc1.N#C[N-]C#N.N#C[N-]C#N + CCO
viscosity [mPa·s], 100 kPa
Conditions	293.15 K	313.15 K	323.15 K
x1 = 0.7003	–	–	75.75
x1 = 0.7998	614.5	161.5	99.22
